Source: patent US9688624B2, “DP2 antagonist and uses thereof” (Brickell Biotech, Inc., priority 2010, dated 2017)
Structures can show the parent of a compound that is named as a salt. Where two headings read alike, the source gives them in different places.

Legend:
[1] = molecular target: DP2 receptor (Homo sapiens (Human), UniProt Q9Y5Y4); test: In vitro whole blood eosinophil shape change (ESC) assay, PGD2-induced; assay type: cell-based
Protocol: Example 17: In Vitro Whole Blood Esoinophil Shape Change Assay
Compound 1 was evaluated in a whole blood assay of eosinophil shape change (ESC) to determine the ability of Compound 1 to antagonize a PGD2-stimulated functional response in the context of whole blood.
Blood is drawn from consenting human volunteers in EDTA vacutainer tubes and used within 1 hr of draw. A 98 μl aliquot of blood is mixed with 2 μl of Compound 1 (in 50% DMSO) in 1.2 ml polypropylene tubes. The blood is vortexed and incubated at 37° C. for 5 minutes. 5 μl of 1 μM PGD2 in PBS is added for a final concentration of 50 nM and the tubes briefly vortexed. The reactions are incubated for exactly 5 minutes at 37° C. and then terminated by placing the tubes on ice and immediately adding 250 μl of ice-cold 1:4 diluted Cytofix (BD Biosciences). The reactions are transferred to […] polystyrene round bottom tubes and the red blood cells lysed by the addition of 3 ml ammonium chloride lysing solution (150 mM NH4C1, 10 mM KHCO3, 0.1 mM EDTA disodium salt) and incubation at room temperature for 15 minutes. The cells are pelleted by spinning at 1300 rpm for 5 minutes at 4° C. and washed once with 3 ml ice-cold PBS. The cells are resuspended in 0.2 ml of ice-cold 1:4 diluted Cytofix (BD Biosciences) and analyzed on a FACSCalibur (BD Biosciences) within 2 hours. Eosinophils were gated on the basis of autofluorescence in the FL2 channel and shape change on 500 eosinophils was assayed by forward scatter and side scatter analysis. The specific change in shape induced by PGD2 was calculated as the difference between the percentage of high forward scatter eosinophils in the presence and absence of PGD2. IC50s were determined using Graphpad Prism® analysis of drug titration curves.

[2] = molecular target: T1, CYP2C9 (Homo sapiens (Human), UniProt P11712); assay type: in vitro ADME; details: human hepatocytes, 10 μM
T1 sequence (P11712 whole entry): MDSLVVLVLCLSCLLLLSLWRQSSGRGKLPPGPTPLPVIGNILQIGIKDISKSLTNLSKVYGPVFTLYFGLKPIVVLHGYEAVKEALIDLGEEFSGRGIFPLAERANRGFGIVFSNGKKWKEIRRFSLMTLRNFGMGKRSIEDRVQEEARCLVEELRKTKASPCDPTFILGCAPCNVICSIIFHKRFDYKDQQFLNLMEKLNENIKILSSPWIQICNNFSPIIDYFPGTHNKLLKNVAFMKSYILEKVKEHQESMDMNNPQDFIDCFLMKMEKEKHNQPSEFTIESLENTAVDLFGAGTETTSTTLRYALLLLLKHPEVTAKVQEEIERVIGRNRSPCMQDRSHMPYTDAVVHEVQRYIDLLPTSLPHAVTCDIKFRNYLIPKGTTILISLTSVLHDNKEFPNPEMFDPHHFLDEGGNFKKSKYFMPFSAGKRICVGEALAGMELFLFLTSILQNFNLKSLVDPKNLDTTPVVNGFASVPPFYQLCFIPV

[3] = Plasma exposure in satellite group of mouse allergic rhinitis model; assay type: in vivo; details: Compound 2 10 mg/kg PO
Protocol: Compound 2 was evaluated in a mouse model of ovalbumin (OVA)-induced allergic rhinitis in which nasal ovalbumin challenges to OVA-primed mice elicits an increase in sneezing and nasal rubs (Methods were adapted from those detailed in Nakaya, M., et al. 2006, Laboratory Investigation, 86:917-926). OVA-primed mice received an intranasal challenge of OVA daily for 5 consecutive days. The number of sneezes and nasal rubs were counted over an 8 minute recording session on days 1, 3 and 5 immediately following OVA challenge. OVA caused a significant increase in both sneezing behavior and nasal rubs when compared to intranasal phosphate buffered saline (PBS) challenge. […] The plasma exposure for Compound 1 measured in a satellite group was 1360 nM, 460 nM, 210 nM and 90 nM for time points 1, 2, 4, and 6 hr post-dose, respectively.

[4] = Plasma concentrations in mouse smoke model; assay type: in vivo
Protocol: BALB/c mice were exposed to the smoke of 7 unfiltered cigarettes per day via whole-body exposure on days 0, 1, and 2 for a total of 1.75 hours per day. […] The plasma concentrations for Compound 1 measured at trough were 85 and 588 nM at 10 mg/kg and 50 mg/kg, respectively.

[5] = molecular target: T2, CYP3A4 (Homo sapiens (Human), UniProt P08684); details: human hepatocytes, 10 μM
T2 sequence (P08684 whole entry): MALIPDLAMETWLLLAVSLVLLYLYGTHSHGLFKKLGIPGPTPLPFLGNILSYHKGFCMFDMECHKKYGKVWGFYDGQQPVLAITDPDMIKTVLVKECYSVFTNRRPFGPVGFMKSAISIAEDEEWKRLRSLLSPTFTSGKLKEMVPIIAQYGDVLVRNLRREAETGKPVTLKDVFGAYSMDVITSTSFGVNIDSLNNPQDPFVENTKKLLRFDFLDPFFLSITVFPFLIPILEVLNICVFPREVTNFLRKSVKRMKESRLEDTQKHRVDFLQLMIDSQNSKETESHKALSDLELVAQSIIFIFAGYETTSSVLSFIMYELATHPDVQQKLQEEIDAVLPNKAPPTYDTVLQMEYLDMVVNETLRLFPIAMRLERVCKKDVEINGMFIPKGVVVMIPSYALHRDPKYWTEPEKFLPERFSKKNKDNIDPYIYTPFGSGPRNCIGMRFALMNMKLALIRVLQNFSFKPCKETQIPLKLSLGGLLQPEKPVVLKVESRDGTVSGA

[6] = molecular target: T2, CYP3A4; test: Extracellular cytochrome P450 inhibition (microsomes); assay type: in vitro ADME
[7] = molecular target: T1, CYP2C9; test: as above; assay type: in vitro ADME; details: 2C9, diclofenac 4′-hydroxylation
[8] = tested on: allergen-induced asthma (OVA challenge); test: Guinea pig allergic asthma (OVA) model; assay type: in vivo
Protocol: Example 20: Guinea Pig Allergic Asthma Model
Compound 2 was evaluated in a guinea pig OVA model in order to determine efficacy in a setting of allergen-induced asthma. As an early indication of a pharmacodynamic response animals were challenged with DK-PGD2 2 hours post OVA challenge (2.5 hours post Compound 2 administration) and blood was collected 30 minutes later to assess leukocytes counts. […] OVA challenge caused a significant influx of cells in bronchoalveolar lavage fluid at 23.5 hr post-dose; there was no difference between animals that received OVA only versus those that received OVA plus DK-PGD2. The majority of cells were eosinophils and macrophages with a small, but significant proportion of neutrophils.

[9] = Phase I single ascending dose study, safety and tolerability; assay type: in vivo, human; details: humans, capsule, 5 to 500 mg single doses
Text: To assess: (1) the safety and tolerability of single and multiple doses of Compound 2 following oral administration; and (2) the pharmacokinetics (PK) of Compound 2 after single and multiple doses; and (3) the effects of the pharmacodynamic (PD) responses in healthy subjects to Compound 2 as measured by a PGD2-induced eosinophil shape change assay (ESC).
The Single Ascending Dose (SAD) study will include 6 cohorts with 8 subjects each, 6 receiving the active treatment and 2 receiving the placebo. The SAD study will explore doses of 5, 15, 50, 150, 300 and 500 mg/day. Compound 2 (Pattern 1) is administered as API in a Capsule, prepared on site at the clinical pharmacy (see Example 10). Safety monitoring will include: a “how do you feel” (HDYF) question, adverse events reporting, physical examinations, vital signs, ECG's, and a biological assessment (clinical chemistry, hematology and urinalysis). The decision to escalate to the next dose level will be based on the results of medical monitoring, and a blinded interim analysis of pharmacokinetic parameters (AUC, Cmax) and pharmacodynamic responses. Doses may be adjusted based on the occurrence of adverse events. Subjects will be followed on site for 72 hours after dose administration.

[10] = molecular target: T3, CYP1A2 (Homo sapiens (Human), UniProt P05177); details: microsomes, pH 7.4
T3 sequence (P05177 whole entry): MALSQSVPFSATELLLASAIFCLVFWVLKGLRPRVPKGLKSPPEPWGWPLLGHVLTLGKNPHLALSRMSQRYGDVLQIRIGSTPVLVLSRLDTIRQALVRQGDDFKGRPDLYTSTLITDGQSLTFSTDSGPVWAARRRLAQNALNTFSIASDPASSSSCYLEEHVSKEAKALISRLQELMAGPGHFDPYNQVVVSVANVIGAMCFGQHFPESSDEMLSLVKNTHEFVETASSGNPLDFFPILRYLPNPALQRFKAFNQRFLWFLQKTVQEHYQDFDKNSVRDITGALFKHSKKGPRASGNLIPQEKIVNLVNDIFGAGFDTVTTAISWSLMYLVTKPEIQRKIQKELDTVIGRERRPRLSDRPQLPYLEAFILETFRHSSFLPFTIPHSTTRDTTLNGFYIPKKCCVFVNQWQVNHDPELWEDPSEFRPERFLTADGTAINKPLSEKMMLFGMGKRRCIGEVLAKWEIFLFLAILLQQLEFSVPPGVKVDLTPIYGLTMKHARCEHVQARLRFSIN

[11] = molecular target: T3, CYP1A2; test: Extracellular cytochrome P450 inhibition (microsomes)

Sequence of DP2 receptor (Q9Y5Y4 whole entry): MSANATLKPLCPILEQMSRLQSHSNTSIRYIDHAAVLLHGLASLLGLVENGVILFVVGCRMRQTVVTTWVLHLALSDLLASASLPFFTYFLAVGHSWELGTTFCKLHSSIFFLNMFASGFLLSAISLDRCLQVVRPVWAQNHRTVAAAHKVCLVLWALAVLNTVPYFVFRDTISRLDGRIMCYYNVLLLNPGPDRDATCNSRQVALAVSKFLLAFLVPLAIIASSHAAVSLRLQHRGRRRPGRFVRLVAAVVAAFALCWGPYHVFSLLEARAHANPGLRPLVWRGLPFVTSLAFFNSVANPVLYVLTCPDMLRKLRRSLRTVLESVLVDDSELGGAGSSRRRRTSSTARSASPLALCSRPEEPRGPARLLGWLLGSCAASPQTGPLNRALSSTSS

COc1ccc(CC(=O)O)cc1Oc1ccc(NC(=O)C(C)(C)C)cc1CSC(C)(C)C [Compound 1, 2-(3-(2-((tert-butylthio)methyl)-4-(2,2-dimethyl-propionylamino)phenoxy)-4-methoxyphenyl)acetic acid]
IC90 [1]: 5.5 nM | IC50 ([1]; average, 50 nM PGD2, read-out: IC50, PGD2-induced eosinophil shape change in human whole blood): 1.5 nM | IC90 ([1]; same value expressed in ng/mL): 2.6 ng/mL | IC50 ([1]; same value expressed in ng/mL, read-out: IC50, human ESC (converted)): 1.52 nM | induction of CYP2C9 [2]: not a strong inducer | concentration at 1 h ([3]; 1 hr post-dose): 1360 nM | concentration at 2 h ([3]; 2 hr post-dose, read-out: plasma exposure for Compound 1): 460 nM | concentration at 4 h ([3]; 4 hr post-dose, read-out: plasma exposure for Compound 1): 210 nM | concentration at 6 h ([3]; 6 hr post-dose, read-out: plasma exposure for Compound 1): 90 nM | plasma concentration for Compound 1 at trough ([4]; 10 mg/kg PO daily): 85 nM | plasma concentration for Compound 1 at trough ([4]; 50 mg/kg PO daily): 588 nM | induction of CYP3A4 [5]: not a strong inducer

COc1ccc(CC(=O)O)cc1Oc1ccc(NC(=O)C(C)(C)C)cc1CSC(C)(C)C [Compound 2, 2-(3-(2-((tert-butylthio)methyl)-4-(2,2-dimethyl-propionylamino)phenoxy)-4-methoxyphenyl)acetic acid, sodium salt]
IC50 ([6]; 3A4, midazolam 1-hydroxylation, read-out: IC50): > 50 µM | IC50 ([6]; 3A4, testosterone 6β-hydroxylation, read-out: IC50): 26 µM | IC50 ([6]; not a potent inhibitor, read-out: IC50, CYP3A4 (summary statement)): > 25 µM | IC50 [7]: > 50 µM | eosinophils and neutrophils in bronchoalveolar lavage fluid ([8]; 100 mg/kg PO): significantly reduced | total cellular influx in bronchoalveolar lavage fluid ([8]; 30, 60, and 100 mg/kg PO, significant at 60 and 100 mg/kg, 23.5 hr post-dose): dose dependently inhibited | DK-PGD2-induced increase in blood leukocytes ([8]; 30, 60, and 100 mg/kg, 2.5 hours post administration): blocked | tolerability [9]: well tolerated | IC50 [10]: > 50 µM | IC50 [11]: > 25 µM
